Data: patent US20200069617A1, “USE OF N-ACETYLCYSTEINE AMIDE IN THE TREATMENT OF ACETAMINOPHEN OVERDOSE” (priority 2015, published 2020)

Assays:
[1] = system: APAP overdose; assay: Survival of mice after APAP overdose; type: in vivo, C57 BL/6 mice; conditions: FIG. 10
Description: Studies were then performed where C57 BL/6 mice received APAP overdose of 500 mg/kg. NACA or NAC was administered (106 mg/kg) 1.5 hours post APAP and at every 12 hours thereafter until 72 hours. The APAP group had 6 mice and the NAC and NACA groups contained 4. Mice treated with NACA/APAP survived for 150 hours, while mice treated with APAP or NAC/APAP had 60% and 30% survival respectively (FIG. 10).

[2] = system: APAP-induced hepatotoxicity; assay: Protective effects in APAP-induced hepatotoxicity (oxidative stress and organ injury markers); type: in vivo, C57BL/6 mice
Description: Studies were then performed to evaluate the protective effects of NACA in APAP-induced hepatotoxicity using male C57BL/6 mice that were intraperitoneally injected with 400 mg/kg of APAP after 15 hours of fasting. The therapeutic potentials of NAC and NACA were compared by administering NAC/NACA (106 mg/kg) after 1.5 hours of APAP administration and sacrificing the mice 4 hours after the APAP administration. The GSH/GSSG ratio, a crucial antioxidant parameter, and malondialdehyde (MDA) levels were measured in liver tissue.
Alanine aminotransferase (ALT) and glutamate dehydrogenase levels were also measured in serum (FIG. 3). These are markers of livery injury.

SMILES | survival ([1]; APAP 500 mg/kg, 106 mg/kg 1.5 hours post APAP and every 12 hours until 72 hours) | oxidative stress in a number of tissues ([2]; APAP administration) | liver injury (serum ALT and glutamate dehydrogenase levels) ([2]; APAP alone, FIG. 3) | blood urea nitrogen (BUN) ([2]; APAP alone, FIG. 9) | serum creatine kinase (CK) ([2]; APAP alone, FIG. 9) | survival ([1]; APAP overdose of 500 mg/kg alone)
CC(=O)N[C@@H](CS)C(=O)O [NAC, N-acetylcysteine] | 30% | – | – | – | – | –
CC(=O)Nc1ccc(O)cc1 [APAP, N-acetyl-p-aminophenol] | – | increases | causes liver injury | increases | increases | 60%
